pEC50, pIC50: −log10 of the molar value.
Key:
[1] = biological target: T1, p38 MAPKα isoform (MAPK14: Invitrogen) (Homo sapiens, UniProt Q16539); test: p38 MAPKα enzyme inhibition assay (FRET, Z-LYTE, via MAPKAP-K2 activation); format: biochemical; details: 2 hr pre-incubation, ATP 10.0 μM; read-out: Enzyme Inhibition IC50 p38α
T1 construct: purchased Invitrogen

[2] = biological target: T2, Recombinant, phosphorylated p38 MAPKγ (MAPK12:Invitrogen) (Homo sapiens, UniProt P53778); test: p38 MAPKγ enzyme inhibition assay (FRET, Z-LYTE); format: biochemical; details: 2 hr pre-incubation, ATP 100 μM; read-out: Enzyme Inhibition IC50 p38γ
T2 construct: purchased Invitrogen
T2 sequence (P53778 1-367): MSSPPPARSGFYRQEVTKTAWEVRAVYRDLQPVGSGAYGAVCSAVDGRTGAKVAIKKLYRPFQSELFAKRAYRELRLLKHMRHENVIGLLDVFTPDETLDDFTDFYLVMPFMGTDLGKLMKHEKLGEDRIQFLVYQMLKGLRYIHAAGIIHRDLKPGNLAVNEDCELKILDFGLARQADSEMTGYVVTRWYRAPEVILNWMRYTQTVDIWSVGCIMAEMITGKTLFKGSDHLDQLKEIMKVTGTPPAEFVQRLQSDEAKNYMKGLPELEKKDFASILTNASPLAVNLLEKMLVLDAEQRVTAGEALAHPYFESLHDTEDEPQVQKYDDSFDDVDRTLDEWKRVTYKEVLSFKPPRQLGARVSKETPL

[3] = tested on: LPS-induced TNFα release in THP-1 cells; test: LPS-induced TNFα release in THP-1 cells; format: cell-based; details: Homo sapiens, 3 μg/mL LPS, 4 hr
Summary of the method: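 Human monocytic cells were stimulated with 3 μg/mL E. coli LPS for 4 hr. Supernatant TNFα was measured by sandwich ELISA. Inhibition was taken relative to vehicle control, and IC50 derived from the concentration-response curve.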

[4] = tested on: LPS-induced TNFα release in d-U937 cells; test: LPS-induced TNFα release in d-U937 cells; format: cell-based; details: Homo sapiens, dU937, 4 h; read-out: LPS/TNFα REC50 d-U937
Summary of the method: (§1)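 U937 cells differentiated with PMA (100 ng/mL, 48–72 hr), pre-incubated with compound 2 hr, then stimulated with 0.1 μg/mL E. coli O111:B4 LPS for 4 hr. Supernatant TNFα and IL-8 measured by sandwich ELISA; REC50 (TNFα) and IC50 (IL-8 inhibition vs vehicle) taken from concentration-response curves.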

[5] = tested on: LPS-induced IL-8 release in d-U937 cells; test: LPS-induced IL-8 release in d-U937 cells; format: cell-based; details: Homo sapiens, dU937, 0.1 μg/mL LPS, 4 hr
Summary of the method: as §1

[6] = tested on: Poly I:C-induced ICAM-1 expression in BEAS2B cells; test: Poly I:C-induced ICAM-1 induction in BEAS2B cells; format: cell-based; details: Homo sapiens, BEAS-2B, poly I:C 1 μg/mL, 18 hr, read-out: PolyI:C/ICAM1 IC50 BEAS2B
Summary of the method: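 Human bronchial epithelial BEAS2B cells were pre-incubated with compound for 2 h, then transfected with poly I:C at 1 μg/mL. Surface ICAM-1 was measured 18 h later by cell-based ELISA (OD450–655), normalised to crystal-violet cell number (OD595). IC50 was taken from the concentration–response curve against vehicle.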

[7] = tested on: Differentiated U937 cells; test: MTT assay: cell viability on exposure to test compounds; format: cell-based, human; details: percentage loss of cell viability vs vehicle, 1 μg/mL; for MTT Assay (Viability) 4 h d-U937: 5% FCS; for MTT Assay (Viability) 24 h d-U937: 10% FCS
Summary of the method: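 Differentiated U937 cells were pre-incubated with compound for either 4 h in 5% FCS or 24 h in 10% FCS, then given MTT for 1 h. Formazan was dissolved in DMSO and read at 550 nm. Viability loss is expressed as % versus 0.5% DMSO vehicle, so an apparent gain appears as a negative value.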

T1 sequence (Q16539 whole entry, canonical isoform): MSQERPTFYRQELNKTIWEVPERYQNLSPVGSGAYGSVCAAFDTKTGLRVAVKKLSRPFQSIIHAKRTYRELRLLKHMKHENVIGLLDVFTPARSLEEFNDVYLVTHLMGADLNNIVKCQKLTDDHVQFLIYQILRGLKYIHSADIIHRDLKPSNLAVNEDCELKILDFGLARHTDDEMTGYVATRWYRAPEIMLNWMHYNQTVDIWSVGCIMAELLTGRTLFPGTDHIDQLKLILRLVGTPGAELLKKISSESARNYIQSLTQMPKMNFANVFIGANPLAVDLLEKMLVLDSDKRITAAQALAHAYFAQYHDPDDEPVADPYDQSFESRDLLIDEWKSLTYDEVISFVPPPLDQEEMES

Molecule `COc1ccc(-n2nc(C(C)(C)C)cc2NC(=O)Nc2ccc(Oc3ccnc(NC(=O)N(C)C)c3)c3ccccc23)cc1` [Example 7, 3-(4-(4-(3-(3-tert-Butyl-1-(4-methoxyphenyl)-1H-pyrazol-5-yl)ureido)naphthalen-1-yloxy)pyridin-2-yl)-1,1-dimethylurea] has a pIC50 [1] of 8.39, a pIC50 [2] of 6.86 and a pIC50 [3] of 9.15. The pEC50 [4] was 10.52, the pIC50 [5] was 10.00 and the pIC50 [6] was 8.72. The “MTT Assay (Viability) 4 h d-U937” value [7] was −13.3% and the “MTT Assay (Viability) 24 h d-U937” value [7] was −39.1%.
With `COCC(=O)Nc1cc(Oc2ccc(NC(=O)Nc3cc(C(C)(C)C)nn3-c3cccc(O)c3)c3ccccc23)ccn1` [Example 32, N-(4-(4-(3-(3-tert-butyl-1-(3-hydroxyphenyl)-1H-pyrazol-5-yl)ureido)naphthalen-1-yloxy)pyridin-2-yl)-2-methoxyacetamide] the pIC50 [1] was 8.11, the pIC50 [2] was 7.11 and the pIC50 [3] was 9.15. The pEC50 [4] was 10.00, the pIC50 [5] was 9.15 and the pIC50 [6] was 8.26. The “MTT Assay (Viability) 4 h d-U937” value [7] was 5.8% and the “MTT Assay (Viability) 24 h d-U937” value [7] was 42.2%.
`COCC(=O)Nc1cc(Oc2ccc(NC(=O)Nc3cc(C(C)(C)C)nn3-c3ccc(NS(C)(=O)=O)cc3)c3ccccc23)ccn1` [Example 2, N-(4-(4-(3-(3-tert-Butyl-1-(4-(methylsulfonamido)phenyl)-1H-pyrazol-5-yl)ureido)naphthalen-1-yloxy)pyridin-2-yl)-2-methoxyacetamide] showed a pIC50 [1] of 7.89, a pIC50 [2] of 7.37 and a pIC50 [3] of 8.89. The pEC50 [4] was 9.40, the pIC50 [5] was 8.14 and the pIC50 [6] was 8.39. For the same molecule, the “MTT Assay (Viability) 4 h d-U937” value [7] was −13.2% and the “MTT Assay (Viability) 24 h d-U937” value [7] was 15.1%.
Molecule `CNC(=O)Nc1cc(Oc2ccc(NC(=O)Nc3cc(C(C)(C)C)nn3-c3ccc(OC)nc3)c(C)c2C)ccn1` [Example 39, 1-(4-(4-(3-(3-tert-butyl-1-(6-methoxypyridin-3-yl)-1H-pyrazol-5-yl)ureido)-2,3-dimethylphenoxy)pyridin-2-yl)-3-methylurea] has a pIC50 [1] of 7.51, a pIC50 [2] of 7.09 and a pIC50 [3] of 8.74. The pEC50 [4] was 8.74, the pIC50 [5] was 7.63 and the pIC50 [6] was 8.54. For the same molecule, the “MTT Assay (Viability) 4 h d-U937” value [7] was −12.6% and the “MTT Assay (Viability) 24 h d-U937” value [7] was 21.6%.
With `COCC(=O)Nc1cc(Oc2ccc(NC(=O)Nc3cc(C(F)(F)F)nn3-c3ccc(C)cc3)c3ccccc23)ccn1` [Example 29, 2-methoxy-N-(4-(4-(3-(1-p-tolyl-3-(trifluoromethyl)-1H-pyrazol-5-yl)ureido)naphthalen-1-yloxy)pyridin-2-yl)acetamide] the pIC50 [1] was 8.11, the pIC50 [2] was 4.84 and the pIC50 [3] was 6.86. It also gave a pEC50 [4] of 5.48, a pIC50 [5] of less than 5.77 and a pIC50 [6] of 6.38. The “MTT Assay (Viability) 4 h d-U937” value [7] was 0.8% and the “MTT Assay (Viability) 24 h d-U937” value [7] was −5.7%.
In the case of `COCC(=O)Nc1cc(Oc2ccc(NC(=O)Nc3cc(C(C)(C)C)nn3-c3ccc(O)cc3)c3ccccc23)ccn1` [Example 5, N-(4-((4-(3-(3-(tert-Butyl)-1-(4-hydroxyphenyl)-1H-pyrazol-5-yl)ureido)naphthalen-1-yl)oxy)pyridin-2-yl)-2-methoxyacetamide], the pIC50 [1] was 8.77, the pIC50 [2] was 7.05 and the pIC50 [3] was 9.40. The pEC50 [4] was 9.18, the pIC50 [5] was 9.15 and the pIC50 [6] was 8.17. For the same molecule, the “MTT Assay (Viability) 4 h d-U937” value [7] was 4.5% and the “MTT Assay (Viability) 24 h d-U937” value [7] was −19.9%.
Molecule `CSc1ccc(-n2nc(C(C)(C)C)cc2NC(=O)Nc2ccc(Oc3ccnc(NC(=O)N4CCCC4)c3)c3ccccc23)cc1` [Example 14, N-(4-(4-(3-(3-tert-Butyl-1-(4-(methylthio)phenyl)-1H-pyrazol-5-yl)ureido)naphthalen-1-yloxy)pyridin-2-yl)pyrrolidine-1-carboxamide] has a pIC50 [1] of 7.77, a pIC50 [2] of 6.40 and a pIC50 [3] of 8.49. For the same molecule, the pEC50 [4] was 9.22, the pIC50 [5] was 8.14 and the pIC50 [6] was 8.72. The “MTT Assay (Viability) 4 h d-U937” value [7] was −0.4% and the “MTT Assay (Viability) 24 h d-U937” value [7] was −50.0%.
Molecule `COCC(=O)Nc1cc(Oc2ccc(NC(=O)Nc3cc(C(C)(C)C)nn3-c3ccc(Cl)cc3)c3ccccc23)ccn1` [Example 42, N-(4-(4-(3-(3-tert-butyl-1-(4-chlorophenyl)-1H-pyrazol-5-yl)ureido)naphthalen-1-yloxy)pyridin-2-yl)-2-methoxyacetamide] has a pIC50 [1] of 7.60, a pIC50 [2] of 6.62 and a pIC50 [3] of 8.55. The pEC50 [4] was 8.14, the pIC50 [5] was 7.72 and the pIC50 [6] was 7.65. The “MTT Assay (Viability) 4 h d-U937” value [7] was −10.7% and the “MTT Assay (Viability) 24 h d-U937” value [7] was −24.9%.
With `COc1ccc(-n2nc(C(C)(C)C)cc2NC(=O)Nc2ccc(Oc3ccnc(NC(=O)N4CCN(C)CC4)c3)c3ccccc23)cc1` [Example 10, N-(4-(4-(3-(3-tert-Butyl-1-(4-methoxyphenyl)-1H-pyrazol-5-yl)ureido)naphthalen-1-yloxy)pyridin-2-yl)-4-methyl piperazine-1-carboxamide] the pIC50 [1] was 8.33, the pIC50 [2] was 6.98 and the pIC50 [3] was 8.80. The pEC50 [4] was 8.82, the pIC50 [5] was 8.64 and the pIC50 [6] was 8.46. The “MTT Assay (Viability) 4 h d-U937” value [7] was −12.5% and the “MTT Assay (Viability) 24 h d-U937” value [7] was −21.2%.
`COCC(=O)Nc1cc(COc2ccc(NC(=O)Nc3cc(C(C)(C)C)nn3-c3ccc(OC)cc3)c(C)c2C)ccn1` [Example 59, N-(4-((4-(3-(3-tert-butyl-1-(4-methoxyphenyl)-1H-pyrazol-5-yl)ureido)-2,3-dimethylphenoxy)methyl)pyridin-2-yl)-2-methoxy acetamide] was tested, and the pIC50 [1] was 7.90, the pIC50 [2] was 5.38 and the pIC50 [3] was 6.62. The pEC50 [4] was 6.98, the pIC50 [5] was 6.78 and the pIC50 [6] was 6.56. For the same molecule, the “MTT Assay (Viability) 4 h d-U937” value [7] was 11.3% and the “MTT Assay (Viability) 24 h d-U937” value [7] was 0.9%.
`COCC(=O)Nc1cc(Oc2ccc(NC(=O)Nc3cc(C(C)(C)C)nn3-c3cccc(OC)c3)c3ccccc23)ccn1` [Example 36, N-(4-(4-(3-(3-tert-butyl-1-(3-methoxyphenyl)-1H-pyrazol-5-yl)ureido)naphthalen-1-yloxy)pyridin-2-yl)-2-methoxyacetamide] gave a pIC50 [1] of 7.82, a pIC50 [2] of 6.82 and a pIC50 [3] of 9.10. For the same molecule, the pEC50 [4] was 10.00, the pIC50 [5] was 9.10 and the pIC50 [6] was 8.31. For the same molecule, the “MTT Assay (Viability) 4 h d-U937” value [7] was −5.2% and the “MTT Assay (Viability) 24 h d-U937” value [7] was −1.6%.
`CNC(=O)Nc1cc(COc2ccc(NC(=O)Nc3cc(C(C)(C)C)nn3-c3ccc(OC)nc3)c(C)c2C)ccn1` [Example 63, 1-(4-((4-(3-(3-tert-butyl-1-(6-methoxypyridin-3-yl)-1H-pyrazol-5-yl)ureido)-2,3-dimethylphenoxy)methyl)pyridin-2-yl)-3-methylurea] showed a pIC50 [1] of 7.79, a pIC50 [2] of less than 4.76 and a pIC50 [3] of 7.55. The pEC50 [4] was 7.58, the pIC50 [5] was 6.90 and the pIC50 [6] was 6.75. For the same molecule, the “MTT Assay (Viability) 4 h d-U937” value [7] was 32.5% and the “MTT Assay (Viability) 24 h d-U937” value [7] was 21.2%.
`COCC(=O)Nc1cc(Oc2ccc(NC(=O)Nc3cc(-c4ccccc4)nn3-c3ccccc3)c3ccccc23)ccn1` [Example 19, N-(4-((4-(3-(1,3-Diphenyl-1H-pyrazol-5-yl)ureido)naphthalen-1-yl)oxy)pyridin-2-yl)-2-methoxyacetamide] showed a pIC50 [1] of 9.40, a pIC50 [2] of 6.58 and a pIC50 [3] of 8.74. It also gave a pEC50 [4] of 8.09, a pIC50 [5] of 7.61 and a pIC50 [6] of 6.43. For the same molecule, the “MTT Assay (Viability) 4 h d-U937” value [7] was −1.7% and the “MTT Assay (Viability) 24 h d-U937” value [7] was −11.7%.

— patent US9024041B2, “P38 MAP kinase inhibitors” (Respivert Ltd., priority 2010, dated 2015)
